Measurements taken from US20080234345A1, “METHOD FOR REDUCING OR ALLEVIATING INFLAMMATION IN THE DIGESTIVE TRACT” (Gene Logic Inc., priority 2006, published 2008).

Key:
[1] = tested on: DSS-induced NF-κB signaling; test: Subsequent DSS study in NF-κB::Luc mice, oral gavage; assay type: in vivo; conditions: 300 mg/kg/day, twice daily by oral gavage; 2.5% DSS
From the text: In a subsequent study in NF-κB::Luc mice, 2.5% DSS treatment tended to increase NF-κB signaling, as measured by luciferase expression, in distal colon and mesenteric lymph tissues, although these increases were generally not statistically significant. […] Reasons for lack of effect of GL1001 in this study are not fully understood at present.

[2] = tested on: activator protein-1 (AP-1); test: Basal in vivo reporter luciferase expression in AP-1::Luc mice; conditions: AP-1::Luc mice (data not shown)
[3] = tested on: NF-κB dependent transcription; test: In vivo basal NF-κB dependent transcription in NF-κB::Luc reporter mice, abdominal imaging; conditions: 4 hours
From the text: GL1001 was further tested for in vivo anti-inflammatory activity by examining its effects on basal levels of NF-κB dependent transcription in mice engineered in the germline with a construct containing an NF-κB enhancer linked to a luciferase gene (i.e., NF-κB::Luc mice), such that this NF-κB reporter construct is present in all cells of the mice.
More particularly, transgenic NF-κB::Luc mice were generated using three NF-κB response elements from the Igκ light chain promoter fused to a firefly luciferase gene as described by Carlsen et al. (2002) J. Immunol. 168:1441-1446. Pronuclear microinjection of purified construct DNA was used to generate transgenic founders in the C57BL/6 XCBA/J background. Founders were subsequently back crossed to the C57BL/6 albino background. […] Signal data were also quantitated and archived using the Living Image® software. Photons of light were quantitated using an oval region of interest (ROI) of varying sizes depending on the procedure, as described further below.
To test for in vivo effects of GL1001 on basal levels of NF-κB dependent transcription, male NF-κB::Luc mice were subjected to quantitative in vivo imaging of the abdominal area (using a fixed ROI of 2.76×3.7 cm) as described above, immediately before, and at 2, […]

[4] = tested on: DSS-induced colitis in Balb/c mice; test: DSS-induced colitis in Balb/c mice (Example 7); assay type: in vivo; conditions: s.c. b.i.d., GL1001 300 mg/kg
Protocol: A study was designed with six groups of Balb/c mice: naïve control, DSS followed by vehicle, DSS followed by GL1001 30 mg/kg/day, DSS followed by GL1001 100 mg/kg/day, DSS followed by GL1001 300 mg/kg/day, and DSS followed by sulfasalazine 150 mg/kg/day. Administration of DSS was via drinking water, from day 1 to day 6 of the study. […] Administration of vehicle, GL1001 and sulfasalazine was subcutaneous, twice daily, from day 6 until termination of the study (day 16).
Body weight of each animal was measured at days 1, 3 and 5 (pre-initiation of GL1001 or sulfasalazine treatment) and at days 7, 9, 11 and 13 (post-initiation of GL1001 or sulfasalazine treatment). On these same days, disease activity measurements were recorded, including: • (a) rectal prolapse (0=no prolapse, 1=partial prolapse, 2=moderate prolapse, 3=full prolapse); • (b) stool consistency (0=solid pellet, 1=semi-solid, 2=soft stool, 3=diarrhea); and • (c) fecal occult blood (0=no blood present, 1=occult blood, 2=gross blood).
At termination of the study, colon length was determined and histological analysis was conducted as in Example 6.

[5] = tested on: DSS-induced colitis in Balb/c mice; test: DSS-induced histological effects in colon of Balb/c mice (Example 6); assay type: in vivo
Protocol: A study was designed with five groups of Balb/c mice: naïve control, DSS followed by vehicle, DSS followed by dexamethasone 3 mg/kg/day, DSS followed by GL1001 10 mg/kg/day, and DSS followed by GL1001 100 mg/kg/day. Administration of DSS was via drinking water (DSS 5% in water), from day 0 to day 7 of the study. […] Administration of vehicle, dexamethasone and GL1001 was subcutaneous, once daily, from day 7 until termination of the study (day 14).
At termination of the study, samples from proximal, transverse and distal portions of the colon of each animal were collected for histological analysis, which included: • (a) inflammation score (0-5), based on leukocyte infiltration in mucosa and submucosa, crypt abcess and edema; • (b) glandular score (0-5), based on crypt destruction (crypts function to produce mucin and generate epithelium); and • (c) erosion score (0-5), based on integrity of epithelium or degree of ulceration thereof. A total histopathological score was obtained by adding the scores from (a), (b) and (c) above.

[6] = GL1001 100 mg/kg/day s.c. once daily

CC(C)C[C@H](N[C@@H](Cc1cncn1Cc1cc(Cl)cc(Cl)c1)C(=O)O)C(=O)O [GL1001, (S,S)-2-[1-carboxy-2-[3-(3,5-dichlorobenzyl)-3H-imidazol-4-yl]-ethylamino]-4-methylpentanoic acid]
DSS-induced NF-κB signaling (luciferase expression) [1]: did not lower
basal in vivo levels of reporter luciferase expression [2]: no significant effect
inhibition of basal in vivo levels of NF-κB dependent transcription in abdominal ROI ([3]; 300 mg/kg subcutaneous, p<0.01): over 40%
inhibition of basal in vivo levels of NF-κB dependent transcription in abdominal ROI ([3]; both lower doses, subcutaneous): lesser but still significant extents
fecal occult blood ([4]; day 7, sulfasalazine 150 mg/kg): reduces
stool consistency ([4]; day 7, sulfasalazine 150 mg/kg): reduces
percentage weight loss ([4]; day 9, sulfasalazine 150 mg/kg): reduces
rectal prolapse ([4]; day 9, sulfasalazine 150 mg/kg): reduces
distal colon erosion score [4]: reduces
distal colon crypt score ([4]; sulfasalazine 150 mg/kg): reduces
distal colon inflammation score ([4]; sulfasalazine 150 mg/kg): reduces
distal colon total histopathology score ([4]; sulfasalazine 150 mg/kg): reduces
reduction in colon length ([4]; sulfasalazine 150 mg/kg): inhibits reduction
histological effect ([5]; GL1001 10 mg/kg/day s.c.): No significant histological effect
micrograph of distal colon section (FIG. 14) ([5]; GL1001 100 mg/kg s.c. once daily, one animal): Inflammation and gland loss are mild, and no erosion is seen
erosion score, distal colon [5, 6]: significantly reduced
glandular score, distal colon [5, 6]: significantly reduced
inflammation score, distal colon [5, 6]: significantly reduced
total histopathological score, distal colon [5, 6]: significantly reduced
disease activity (based on fecal samples) ([5]; s.c. once daily day 7-14, dexamethasone 3 mg/kg/day, GL1001 10 and 100 mg/kg/day): No significant improvement
